In PMC4508327 (Clinical cancer research : an official journal of the …, 2015):

Assays:
advanced solid tumors = assay: Objective tumor response; format: in vivo, human
[1] = preclinical; no reference given; cited from earlier work
[2] = in vivo
QTc interval = format: in vivo, human
[3] = system: patients with advanced solid tumors; assay: Phase I safety: adverse events
[4] = system: patients with advanced solid tumors; details: human, in vivo

CN(C)C1CCN(C(=O)c2ccc(NC(=O)Nc3ccc(-c4nc(N5CCOCC5)nc(N5CCOCC5)n4)cc3)cc2)CC1 [PF-05212384]
patients with long-lasting stable disease (>6 months) (advanced solid tumors; 77 treated patients): Eight
clinical benefit response (CBR) (advanced solid tumors; CR, PR or SD lasting ≥6 months, overall): 13%
objective tumor response rate (advanced solid tumors; overall study population, n = 77): 2.6%
partial responses (PR) (advanced solid tumors; overall study population, plus one unconfirmed PR): two
effect on cardiac, central nervous system or respiratory function [1]: did not show any significant effect
accumulation (accumulation ratios for Cmax) ([2]; human): no accumulation
interpatient variability in Cmax and AUC ([2]; human): low to moderate
terminal T1/2, mean values ([2]; human): 33 to 41 h
Cmax and AUC versus dose [2]: appeared to increase proportionally with increasing dose
association with QTc prolongation (QTc interval; based on the lack of a dose-effect relationship): likely not associated with QTc prolongation
patients with grade 1 QTc prolongation (QTc interval; human, in vivo): 5%
patients with grade 2 QTc prolongation (QTc interval; human, in vivo): 5%
patients with grade 3 QTc prolongation (QTc interval; in vivo): no patients
maximum tolerated dose (MTD) ([3]; IV once weekly, estimated by modified CRM): 154 mg
deaths on study and within 28 days of last-dose administration ([3]; seven disease progression, one colon obstruction, one pneumonia): Nine
all-cause AE: anemia [4]: 18.2%
all-cause AE: asthenia [4]: 26%
all-cause AE: back pain [4]: 19.5%
all-cause AE: constipation [4]: 23.4%
all-cause AE: cough [4]: 23.4%
all-cause AE: decreased appetite [4]: 37.7%
all-cause AE: diarrhea [4]: 24.7%
all-cause AE: dyspnea [4]: 19.5%
all-cause AE: fatigue [4]: 32.5%
all-cause AE: hyperglycemia [4]: 28.6%
all-cause AE: increased ALT and AST [4]: 16.9%
all-cause AE: mucosal inflammation and stomatitis [4]: 59.7%
all-cause AE: nausea [4]: 55.8%
all-cause AE: pyrexia [4]: 23.4%
all-cause AE: rash [4]: 23.4%
all-cause AE: vomiting [4]: 35.1%
patients who discontinued due to treatment-related AEs [4]: 3.9%
treatment-related AE: decreased appetite [4]: 24.7%
treatment-related AE: fatigue [4]: 24.7%
treatment-related AE: hyperglycemia [4]: 26%
treatment-related AE: mucosal inflammation and stomatitis [4]: 58.4%
treatment-related AE: nausea [4]: 42.9%
treatment-related AE: vomiting [4]: 24.7%
recommended phase 2 dose ([4]; iv): 154 mg
